Data published in patent US6710040B1, “Fluorinated cyclic amides as dipeptidyl peptidase IV inhibitors” (Pfizer Inc., priority 2002, dated 2004).
Structures can show the parent of a compound that is named as a salt.

## CC[C@@H](C)[C@H](N)C(=O)N1CC(F)(F)C(F)(F)C1 (as salt: hydrochloride) [Example 4, (2S,3R)-2-Amino-3-methyl-1-(3,3,4,4-tetrafluoro-pyrrolidin-1-yl)-pentan-1-one]
  melting point: > 250 °C

## CC[C@@H](C)[C@H](N)C(=O)N1CCC(F)(F)C1 [Example 7, (2S,3R)-2-Amino-1-(3,3-difluoro-pyrrolidin-1-yl)-3-methyl-pentan-1-one]
  melting point: 196 to 198 °C

## CCC(C)[C@H](N)C(=O)N1CCC(F)(F)CC1.Cl (some centres unmarked)
  melting point: 190 to 192 °C

## N[C@H](C(=O)N1CC(F)(F)C(F)(F)C1)C1CCCCC1 (as salt: hydrochloride) [Example 3, (S)-2-Amino-2-cyclohexyl-1-(3,3,4,4-tetrafluoro-pyrrolidin-1-yl)-ethanone]
  melting point: 278 °C

## N[C@H](C(=O)N1CC(F)C1)C1CCCCC1 (as salt: hydrochloride) [Example 5, (S)-2-Amino-2-cyclohexyl-1-(3-fluoro-azetidin-1-yl)-ethanone]
  melting point: 238 to 240 °C

## CC[C@H](C)[C@H](N)C(=O)N1CCC(F)(F)C1 [Example 8, (2S,3S)-2-Amino-1-(3,3-difluoro-pyrrolidin-1-yl)-3-methyl-pentan-1-one]
  melting point: 195 to 198 °C

## CCC(C)[C@H](N)C(=O)N1CC(F)(F)C1.Cl (some centres unmarked)
  melting point: 195 °C (dec.)

## C[C@H](N)C(=O)N1CC(F)(F)C(F)(F)C1.Cl
  melting point: > 250 °C

## CC[C@H](C)[C@H](N)C(=O)N1CC(F)C1 (as salt: hydrochloride) [Example 2, (2S,3S)-2-Amino-1-(3-fluoro-azetidin-1-yl)-3-methyl-pentan-1-one]
  melting point: 208 to 210 °C

## CC(C)[C@H](N)C(=O)N1CC(F)(F)C(F)(F)C1 (as salt: hydrochloride) [Example 6, (S)-2-Amino-3-methyl-1-(3,3,4,4-tetrafluoro-pyrrolidin-1-yl)-butan-1-one]
  melting point: 234 to 238 °C

## Cl.N[C@H](C(=O)N1CC(F)(F)C1)C1CCCCC1
  melting point: 220 °C (dec.)
